Experimental data as given in CN101069680A, “2-羟基-4-甲基苯磺酸制剂的制备及其应用” (BEIJING HUARUI DINGXIN TECHNOLOGY Co Ltd, priority 2007, dated 2007).

Columns and labels:
[1] = tested on: Candida albicans 6 (白色念珠菌6); experiment: In vitro antibacterial effect, tube method; design: key: -: 有明显抑菌作用; +: 没有抑菌作用; details: 1% solution mixed with MH broth with 5% glucose, 37°C, 24 h
[2] = tested on: Staphylococcus aureus 9776 (金葡菌9776); experiment: In vitro antibacterial effect, tube method; design: key to antibacterial effect: -: 有明显抑菌作用; +: 没有抑菌作用; details: 1% solution mixed with MH broth
[3] = tested on: Candida albicans 2 (白色念珠菌2); experiment: In vitro antibacterial effect, tube method; design: key: -: 有明显抑菌作用; +: 没有抑菌作用; details: 1% solution mixed with MH broth with 5% glucose, 37°C, 24 h
[4] = tested on: cervical erosion model rats (宫颈糜烂模型大鼠); experiment: Therapeutic effect on cervical erosion model rats: body weight, vagina and cervix weight index, white blood cell count; format: in vivo, rat; details: intravaginal, 12 days, positive control 0.02 g/kg, Example 2 gel 0.1048 g/kg
[5] = tested on: Staphylococcus epidermidis 26069 (表葡菌26069); experiment: In vitro antibacterial effect, tube method; design: key to antibacterial effect: -: 有明显抑菌作用; +: 没有抑菌作用; details: 1% solution mixed with MH broth
[6] = tested on: egg white (蛋清); experiment: Astringent / coagulating effect on protein (precipitation of egg white); design: key to protein precipitation: -: 未见白色沉淀; +: 隐约可见白色沉淀; +: 有少量白色沉淀; ++: 有较多白色沉淀; +++: 有大量白色沉淀; details: for protein precipitation: 0.2 ml added to 5 ml of 5% egg white
[7] = tested on: Escherichia coli 26 (大肠埃希氏菌26); experiment: In vitro antibacterial effect, tube method; design: key to antibacterial effect: -: 有明显抑菌作用; +: 没有抑菌作用; details: 1% solution mixed with MH broth
[8] = tested on: cervical erosion model rats (宫颈糜烂模型大鼠); experiment: Therapeutic effect on cervical erosion model rats: degree of cervical inflammation / pathology; format: in vivo, rat; details: intravaginal, 12 days, positive control 0.02 g/kg, Example 2 gel 0.1048 g/kg
[9] = tested on: Candida albicans (白色念珠菌); experiment: In vitro antibacterial effect, tube method (summary for the selected strains); details: 1% solution mixed with MH broth
[10] = tested on: Candida albicans 10 (白色念珠菌10); experiment: In vitro antibacterial effect, tube method; design: key: -: 有明显抑菌作用; +: 没有抑菌作用; details: 1% solution mixed with MH broth with 5% glucose, 37°C, 24 h
[11] = tested on: Candida albicans 12 (白色念珠菌12); experiment: In vitro antibacterial effect, tube method; design: key: -: 有明显抑菌作用; +: 没有抑菌作用; details: 1% solution mixed with MH broth with 5% glucose, 37°C, 24 h
[12] = tested on: beta-hemolytic streptococcus 96 (乙型链球菌96); experiment: In vitro antibacterial effect, tube method; design: key to antibacterial effect: -: 有明显抑菌作用; +: 没有抑菌作用; details: 1% solution mixed with MH broth with 5% defibrinated sheep blood
[13] = tested on: Enterococcus faecalis 755 (粪肠球菌755); experiment: In vitro antibacterial effect, tube method; design: key to antibacterial effect: -: 有明显抑菌作用; +: 没有抑菌作用; details: 1% solution mixed with MH broth with 5% defibrinated sheep blood
[14] = number of rats out of 8 per group

Structure (SMILES): Cc1ccc(S(=O)(=O)O)c(O)c1 [2-羟基-4-甲基苯磺酸]
- antibacterial effect [1]: -
- inhibitory effect (in words) [2]: 有明显的抑制作用
- antibacterial effect ([2]; 37°C, 24 h): -
- antibacterial effect [3]: -
- body weight after test ([4]; 1 h after last dose, *P<0.05 vs model): 249.6 ± 26.7 g
- total white blood cell count ([4]; blood, after last dose, *P<0.05, **p<0.01 vs model): 5.74±0.88 10^9g/L
- vagina and cervix weight index ([4]; *P<0.05 vs model): 0.268±0.102 g/100g body weight
- inhibitory effect (in words) [5]: 有明显的抑制作用
- antibacterial effect ([5]; 37°C, 24 h): -
- threshold concentration for astringent coagulating effect on protein ([6]; concentration of the added solution): 0.39%
- astringent coagulating effect compared with tannic acid ([6]; same concentration): 弱于同浓度的鞣酸
- protein precipitation ([6]; test substance solution 0.098% (tube 10)): -
- protein precipitation ([6]; test substance solution 0.195% (tube 9)): -
- protein precipitation ([6]; test substance solution 0.78% (tube 7)): +
- protein precipitation ([6]; test substance solution 1.56% (tube 6)): +
- protein precipitation ([6]; test substance solution 3.125% (tube 5)): ++
- protein precipitation ([6]; test substance solution 6.25% (tube 4)): +++
- protein precipitation ([6]; test substance solution 12.5% (tube 3)): +++
- protein precipitation ([6]; test substance solution 25% (tube 2)): +++
- protein precipitation ([6]; test substance solution 50% (tube 1)): +++
- inhibitory effect (in words) [7]: 有明显的抑制作用
- antibacterial effect ([7]; 37°C, 24 h): -
- Ridit test u value ([8]; inflammation grade vs model group, * = significant difference): 2.8146
- inflammation degree grade: mild [8, 14]: 2
- inflammation degree grade: moderate [8, 14]: 1
- inflammation degree grade: normal [8, 14]: 4
- inflammation degree grade: severe [8, 14]: 1
- inhibitory effect (in words) [9]: 有明显的抑制作用
- antibacterial effect [10]: -
- antibacterial effect [11]: -
- antibacterial effect (in words) [12]: 没有抑菌作用
- antibacterial effect ([12]; 37°C, 24 h): +
- antibacterial effect (in words) [13]: 没有抑菌作用
- antibacterial effect ([13]; 37°C, 24 h): +
